Tests used:
R15a −/− cells = experiment: eIF2α phosphorylation and translation rates in R15a −/− MEF cells; type: cell-based, mouse; settings: R15a −/− cells (genetic inactivation of R15A), 10 μM
Experimental: (§1) HeLa or MEF cells (90,000 cells/mL) were plated in 12-well plates (1 mL/well). The following day cells were treated as indicated; the medium was removed, fresh medium containing compound added and incubated at 37°C for the times indicated. The time course was performed in reverse order to facilitate collecting all samples at the same time. At the end of treatment cells were washed two times with ice-cold PBS and lysed in 150 μL Laemmli Buffer. Lysates were transferred to 1.5 mL eppendorf tubes, boiled at 95°C for 5 min, sonicated and resolved on Bolt SDS-PAGE 4%–12% Bis-Tris gels (ThermoFisher Scientific). Proteins were transferred to the nitrocellulose membrane using the iBlot 2 system (ThermoFisher Scientific). Membrane was blocked in 5% skimmed milk for 30 min and then probed with primary antibodies followed by incubation with the appropriate horseradish peroxidase-conjugated secondary antibodies (Promega). Proteins were visualized using ECL Prime (GE Healthcare) and imaged in the Chemi-Smart 5000 (Vilber-Lourmat, France) or ChemiDoc Touch (BioRad). Bands were quantified using ImageJ (NIH, USA). […]
HeLa or MEF cells (90,000 cells/mL) were plated in 12-well plates (1 mL/well). […] The gels were then exposed to a Storage Phosphor Screen (GE Healthcare) and analyzed by phosphorimaging using a Typhoon Imager Scanner (GE Healthcare).

[1] = Glucose tolerance test in wild-type mice; type: in vivo, mouse; settings: 2 mg/kg daily for 8 weeks
Experimental: Treatment- and test-naive 4 weeks old C3H/B6 males were used. Raphin1 was administered to mice daily for 8 weeks before the test. After the overnight 14 hr starvation mice were injected intraperitoneally with D-glucose (Sigma-Aldrich) at 2 g glucose/kg body weight. Right before and at the indicated time points after the injection blood samples were collected from the tail vein and the blood glucose concentration was determined using The Accu-Chek Aviva Blood Glucose Meter (Roche).

R15A = R15A (Homo sapiens, UniProt O75807); experiment: R15A levels on immunoblots of HeLa cell lysates; type: cell-based; design: endogenous in cells; host or cells: HeLa; settings: HeLa cells, Raphin1 10 μM
Sequence of R15A (O75807 whole entry, stated change not applied): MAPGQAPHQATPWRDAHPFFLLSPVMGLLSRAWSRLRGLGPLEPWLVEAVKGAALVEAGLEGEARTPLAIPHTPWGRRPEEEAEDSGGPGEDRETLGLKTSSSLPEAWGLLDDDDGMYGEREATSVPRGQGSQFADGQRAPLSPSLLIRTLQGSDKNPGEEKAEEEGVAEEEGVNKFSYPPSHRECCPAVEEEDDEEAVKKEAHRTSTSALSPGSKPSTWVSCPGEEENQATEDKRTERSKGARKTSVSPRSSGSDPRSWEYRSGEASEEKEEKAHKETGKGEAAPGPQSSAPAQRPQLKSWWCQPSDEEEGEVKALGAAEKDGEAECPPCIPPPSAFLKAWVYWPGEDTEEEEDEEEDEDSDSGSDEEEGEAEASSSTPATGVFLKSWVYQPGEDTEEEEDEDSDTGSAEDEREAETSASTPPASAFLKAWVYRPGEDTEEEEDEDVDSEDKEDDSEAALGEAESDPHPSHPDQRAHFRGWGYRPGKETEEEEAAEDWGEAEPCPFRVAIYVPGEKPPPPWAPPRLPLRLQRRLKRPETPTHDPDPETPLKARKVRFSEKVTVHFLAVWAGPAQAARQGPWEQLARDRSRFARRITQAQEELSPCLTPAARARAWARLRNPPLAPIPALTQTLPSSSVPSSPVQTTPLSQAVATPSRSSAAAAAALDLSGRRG
Experimental: as §1

wild-type mice = experiment: Fear conditioning; type: in vivo, mouse; settings: 2 mg/kg for 3 weeks
Experimental: Morris water maze and the following fear conditioning were performed on C57BL/6J wild-type males aged 2.5 months. Mice were treatment- and test-naive before the treatment started. Treatment with Raphin1 started two weeks before and was continued during the behavioral tests.
Testing was performed in polymodal operant chambers (Coulbourn Instruments, Allentown, PA, USA). Each chamber (18.5 × 18 × 21.5 cm) consisted of aluminum side walls and Plexiglas rear and front (the door) walls. A loudspeaker and a bright light constituted the sources of the cues during conditioning and cue-testing. The general activity of animals was recorded through the infrared cell placed at the ceiling of the chambers and was directly recorded using the Graphic State software (Coulbourn). For conditioning, mice were allowed to acclimate for 4 min, then a light/tone (10 kHz) – Conditioned Stimulus (CS) was presented for 20 s and co-terminated by a mild (1 s, 0.4 mA) footshock – an aversive Unconditioned Stimulus (US). Mice were returned to their home cages 2 min later. Testing was performed 24 hr following conditioning session. Testing for the context was performed in the morning. […] For both context and cue testing the percentage of time spent in the immobile position (% Freezing) was scored as an indicator of fear memory.

[2] = Monitoring Raphin1 stability in cell culture media; type: physicochemical; settings: 10 μM, 37°C, 0-10 hr, mass spectrometry
Experimental: Raphin1, 10 μM (from a 10 mM DMSO stock), was added to 20 mL of pre-warmed water or cell culture media, in tightly-sealed 20 mL glass vials to reduce evaporation and incubated in an incubator at 37°C. 50 μL samples were taken at 0, 1, 2, 5, 7.5 and 10 hr and added to an Eppendorf tube containing 200 μL of chilled acetonitrile and internal standards. The samples were stored in a −20°C freezer until the end of the study. The samples were then analyzed by mass spectrometry using a TQ-S micro Triple Quadrupole from Waters and compared against a standard curve prepared in the same manner as the samples.

[3] = target: Adrenergic α2A (FAST-006A) receptor (Homo sapiens, UniProt P08913); experiment: α2-adrenergic activity in cells expressing recombinant receptor (Euroscreen); type: cell-based; settings: agonist testing, also videos of mice at 10 mg/kg
Sequence of Adrenergic α2A (FAST-006A) receptor (P08913 whole entry): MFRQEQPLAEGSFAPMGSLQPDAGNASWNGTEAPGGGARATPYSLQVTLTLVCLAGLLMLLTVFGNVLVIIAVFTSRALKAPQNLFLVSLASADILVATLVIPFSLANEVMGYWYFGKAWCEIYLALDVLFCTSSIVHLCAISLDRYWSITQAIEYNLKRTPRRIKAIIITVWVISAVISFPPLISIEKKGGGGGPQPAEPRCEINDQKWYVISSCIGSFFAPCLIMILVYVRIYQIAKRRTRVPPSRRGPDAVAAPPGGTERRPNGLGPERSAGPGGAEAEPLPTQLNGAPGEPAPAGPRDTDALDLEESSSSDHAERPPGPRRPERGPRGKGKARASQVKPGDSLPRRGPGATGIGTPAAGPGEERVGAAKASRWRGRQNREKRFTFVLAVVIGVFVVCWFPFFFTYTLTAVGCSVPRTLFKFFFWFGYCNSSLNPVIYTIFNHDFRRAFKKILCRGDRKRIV
Experimental: α2-adrenergic activity was measured by Euroscreen. Adrenergic α2A (FAST-006A) receptor cells grown 18 hr prior to the test in media without antibiotics were detached by gentle flushing with PBS-EDTA (5 mM EDTA), recovered by centrifugation and re-suspended in “assay buffer” (DMEM/HAM’s F12 with HEPES + 0.1% BSA protease free). Cells were incubated at RT for at least 4 hr with Coelenterazine h (Molecular Probes). Dose response curves with the reference compounds were performed before testing the compounds. For agonist testing, 50 μL of cell suspension was mixed with 50 μL of test compound or reference agonist plated in a 96-well plate. The resulting emission of light was recorded using the Hamamatsu Functional Drug Screening System 6000 (FDSS 6000). Agonist activity of test compound was expressed as a percentage of the activity of the reference agonist at its EC100 concentration.

[H]/N=C(\N)NN=Cc1cccc(Cl)c1Cl [Raphin1, (E)-2-(2,3-dichlorobenzylidene)hydrazine-1-carboximidamide]
Raphin1-induced eIF2α phosphorylation and translation attenuation (R15a −/− cells): persisted | Adverse effects on glucose tolerance [1]: no obvious adverse effects | R15A levels (decrease) (R15A): not observed | Adverse effects on memory, fear-conditioning paradigm (wild-type mice): no adverse effects | Stability in cell culture media over time [2]: stable | α2-adrenergic activity [3]: lacked
